# Source: patent US20100029702A1, “Method For Identification of Compound Having Anti-Anxiety Effect” (priority 2006, published 2010)
# Key:
# [1] = target: T1, 7tmHR (Homo sapiens, UniProt O60241); assay: Changes in intracellular Ca2+ concentration in 7tmHR stably-expressing strain; assay type: cell-based
# T1 construct: a vector expressing each full-length cDNA clone was constructed; expressed in transfected cells; host or cells: CHO-K1, 7tmHR/pcDNA3.1
# Procedure: (§1) The 7tmHR stably-expressing strain and the hk01941 stably-expressing strain were prepared by transfecting the 7tmHR-expressing vector (7tmHR/pcDNA3.1) and the hk01941-expressing vector (hk01941/pcDNA3.1), respectively, into a CHO-K1 cell strain. Specifically, the expression vector was mixed with Lipofectamine 2000, (may be referred to as LF2000, Invitrogen) (4 μg DNA/250 μL of DMEM/F12 medium+10 μL of LF2000/250 μL DMEM/F12 medium) and added the CHO-K1 strain (2 mL medium/well) cultured in a 6-well plate to be transfected thereinto. On the following day, cells were recovered and seeded in a 96-well plate at cell density of 1 cell/well, cultured in a selective medium containing G418 (400 μg/mL) (DMEM/F 12 medium containing 10% FCS), and screened for expression cell strains. […]
# (§2) Changes in the intracellular calcium (Ca^2+) concentration induced by CCK-8S were measured by a method similar to the method described in Example 5 using the 7tmHR stably-expressing strain and the hk01941 stably-expressing strain prepared in Example 7. […]
# (§3) Cells were seeded in a 96-well plate (a plate with a black wall and a transparent bottom) at a cell count of 3×10^4/100 μL of medium/well and cultured overnight at 37° C. in a 5% CO2 incubator. […] After reaction, changes over time in the fluorescence intensity in each well after addition of CCK-8S were measured using the FLEX station (Molecular Device). […]
# [2] = target: T2, hk01941 (Homo sapiens, UniProt O60241, DEL308-417); assay: Changes in intracellular Ca2+ concentration in hk01941 stably-expressing strain; assay type: cell-based
# T2 construct: a vector expressing each full-length cDNA clone was constructed; expressed in transfected cells; host or cells: CHO-K1, hk01941/pcDNA3.1
# T2 sequence (O60241 with tags, fused parts or gaps DEL308-417): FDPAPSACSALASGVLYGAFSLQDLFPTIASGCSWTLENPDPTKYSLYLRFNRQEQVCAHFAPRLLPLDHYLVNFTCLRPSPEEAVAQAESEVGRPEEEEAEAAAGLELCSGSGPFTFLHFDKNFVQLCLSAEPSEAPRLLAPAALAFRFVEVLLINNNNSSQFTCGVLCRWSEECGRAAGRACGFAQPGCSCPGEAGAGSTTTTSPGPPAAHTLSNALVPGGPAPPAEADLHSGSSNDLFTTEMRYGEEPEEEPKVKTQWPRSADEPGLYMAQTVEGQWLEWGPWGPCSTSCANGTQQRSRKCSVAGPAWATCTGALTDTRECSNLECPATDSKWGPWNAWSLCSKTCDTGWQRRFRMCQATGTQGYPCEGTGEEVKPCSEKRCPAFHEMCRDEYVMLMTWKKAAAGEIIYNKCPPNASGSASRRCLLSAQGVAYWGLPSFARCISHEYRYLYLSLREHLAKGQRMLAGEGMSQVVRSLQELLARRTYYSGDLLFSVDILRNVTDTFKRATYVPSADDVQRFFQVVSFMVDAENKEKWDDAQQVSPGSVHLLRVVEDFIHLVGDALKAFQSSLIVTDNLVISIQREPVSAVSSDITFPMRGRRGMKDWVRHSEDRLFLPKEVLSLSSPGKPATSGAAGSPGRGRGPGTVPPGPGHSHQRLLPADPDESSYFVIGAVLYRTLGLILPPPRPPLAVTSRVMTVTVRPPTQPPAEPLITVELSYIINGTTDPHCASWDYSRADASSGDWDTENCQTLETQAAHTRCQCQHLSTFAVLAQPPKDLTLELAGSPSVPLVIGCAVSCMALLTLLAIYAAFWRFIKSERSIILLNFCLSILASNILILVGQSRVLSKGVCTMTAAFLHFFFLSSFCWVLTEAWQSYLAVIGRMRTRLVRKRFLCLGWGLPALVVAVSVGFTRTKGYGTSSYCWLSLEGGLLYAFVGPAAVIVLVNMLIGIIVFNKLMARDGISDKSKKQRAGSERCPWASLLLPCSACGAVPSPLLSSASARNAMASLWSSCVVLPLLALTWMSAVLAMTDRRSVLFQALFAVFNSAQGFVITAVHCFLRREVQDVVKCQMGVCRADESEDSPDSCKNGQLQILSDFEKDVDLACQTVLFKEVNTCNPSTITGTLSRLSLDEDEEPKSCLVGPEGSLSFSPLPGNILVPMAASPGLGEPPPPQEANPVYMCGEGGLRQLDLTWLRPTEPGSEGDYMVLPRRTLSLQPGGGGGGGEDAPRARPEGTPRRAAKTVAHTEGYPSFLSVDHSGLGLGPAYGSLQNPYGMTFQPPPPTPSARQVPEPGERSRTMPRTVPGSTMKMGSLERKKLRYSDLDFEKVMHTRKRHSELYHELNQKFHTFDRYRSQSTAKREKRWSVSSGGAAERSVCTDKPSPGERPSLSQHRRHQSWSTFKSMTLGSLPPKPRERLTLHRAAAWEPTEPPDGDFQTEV
# Procedure: as §1, §2, §3
# T1 sequence (O60241 13-1585): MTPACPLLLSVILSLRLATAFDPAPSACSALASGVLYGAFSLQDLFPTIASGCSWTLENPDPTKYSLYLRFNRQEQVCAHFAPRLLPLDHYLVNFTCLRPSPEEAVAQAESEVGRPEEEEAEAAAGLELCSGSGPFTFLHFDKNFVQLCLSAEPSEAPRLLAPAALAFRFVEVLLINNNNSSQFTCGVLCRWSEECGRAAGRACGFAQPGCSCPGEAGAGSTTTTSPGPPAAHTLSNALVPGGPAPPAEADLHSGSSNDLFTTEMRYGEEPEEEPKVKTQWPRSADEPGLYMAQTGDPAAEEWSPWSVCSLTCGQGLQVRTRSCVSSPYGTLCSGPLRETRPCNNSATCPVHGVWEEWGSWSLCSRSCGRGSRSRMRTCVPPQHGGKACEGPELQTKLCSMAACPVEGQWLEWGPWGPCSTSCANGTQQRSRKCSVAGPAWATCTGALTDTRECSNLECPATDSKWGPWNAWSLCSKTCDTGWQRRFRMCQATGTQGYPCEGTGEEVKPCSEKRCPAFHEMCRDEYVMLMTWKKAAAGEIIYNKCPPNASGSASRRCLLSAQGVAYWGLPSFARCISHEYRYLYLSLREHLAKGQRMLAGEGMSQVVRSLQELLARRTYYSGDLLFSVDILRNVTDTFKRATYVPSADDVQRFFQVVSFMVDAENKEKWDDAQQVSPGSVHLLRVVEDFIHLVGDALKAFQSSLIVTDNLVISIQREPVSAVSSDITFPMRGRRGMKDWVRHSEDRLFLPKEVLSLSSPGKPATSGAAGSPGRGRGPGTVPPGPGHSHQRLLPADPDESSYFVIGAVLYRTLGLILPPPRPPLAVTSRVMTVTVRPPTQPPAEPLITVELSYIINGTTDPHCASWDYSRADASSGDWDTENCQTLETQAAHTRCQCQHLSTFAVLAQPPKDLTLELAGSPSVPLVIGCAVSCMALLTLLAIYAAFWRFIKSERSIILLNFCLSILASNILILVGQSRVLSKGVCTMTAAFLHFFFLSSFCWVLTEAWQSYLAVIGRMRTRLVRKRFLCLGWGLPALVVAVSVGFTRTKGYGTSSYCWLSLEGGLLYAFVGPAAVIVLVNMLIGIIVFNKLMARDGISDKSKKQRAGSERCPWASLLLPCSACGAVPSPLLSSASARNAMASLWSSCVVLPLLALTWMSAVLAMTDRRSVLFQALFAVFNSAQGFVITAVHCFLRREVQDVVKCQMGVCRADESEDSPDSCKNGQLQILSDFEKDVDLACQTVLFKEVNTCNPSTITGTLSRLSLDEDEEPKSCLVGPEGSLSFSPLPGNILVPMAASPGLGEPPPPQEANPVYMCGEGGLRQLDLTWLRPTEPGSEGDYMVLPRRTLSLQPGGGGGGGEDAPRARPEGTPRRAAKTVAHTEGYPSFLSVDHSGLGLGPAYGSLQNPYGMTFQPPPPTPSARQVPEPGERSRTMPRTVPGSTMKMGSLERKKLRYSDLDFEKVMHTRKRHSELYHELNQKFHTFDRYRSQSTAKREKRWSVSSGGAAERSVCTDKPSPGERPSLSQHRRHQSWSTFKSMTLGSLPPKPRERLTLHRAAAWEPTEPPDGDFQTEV
Molecule,"Change in intracellular Ca2+ concentration (fluorescence intensity) ([1]; 7tmHR/CHO#6, A23187 20 μM, positive control)","Change in intracellular Ca2+ concentration (fluorescence intensity) ([2]; hk01941/CHO#13, A23187 20 μM, positive control)","Change in intracellular Ca2+ concentration after addition of CCK-8S ([1]; 7tmHR stably-expressing strain, CCK-8S 10 pM to 1 μM, figure at 1 nM)","Change in intracellular Ca2+ concentration after addition of CCK-8S ([2]; hk01941 stably-expressing strain, CCK-8S 10 pM to 1 μM, figure at 1 nM)"
CNc1ccc2oc(C[C@H]3O[C@@]4(CC[C@H]3C)O[C@H]([C@H](C)C(=O)c3ccc[nH]3)[C@H](C)C[C@H]4C)nc2c1C(=O)O [A23187],increased,increased,,
cholecystokinin octapeptide sulfated form [CCK-8S],,,increase,increase
